ChEMBL document CHEMBL5365447, “Pronucleotides of 2',3'-Dideoxy-2',3'-Didehydrothymidine as Potent Anti-HIV Compounds” (J Med Chem, 2023)
Calls of active or inactive are those of the source. The calls are words filed in the database; no cut-off is given here.

How the values were obtained:
[1] = Prodrug conversion in human CEM/0 cell extract assessed as metabolite formation by measuring half life by HPLC analysis; type: ADME; details: ccrf-cem
[2] = Retention time of the compound by HPLC analysis; type: physicochemical
[3] = system: Human immunodeficiency virus 2; test: Antiviral activity against HIV-2 ROD infected in wild-type human CEM/0 cells assessed as inhibition of virus-induced cytopathic effect incubated for 4 to 5 days by light microscopic analysis; type: functional, organism-based; details: Human immunodeficiency virus 2, ROD, CCRF-CEM
[4] = Chemical stability of the compound in phosphate buffer saline assessed as half life at pH 7.3 by HPLC analysis; type: physicochemical; details: phosphate buffered saline
[5] = system: Human immunodeficiency virus 2; test: Antiviral activity against HIV-2 ROD infected in thymidine kinase-deficient human CEM cells assessed as inhibition of virus-induced cytopathic effect incubated for 4 to 5 days by light microscopic analysis; type: functional, organism-based; details: Human immunodeficiency virus 2, ROD, CCRF-CEM
[6] = system: Human immunodeficiency virus 1; test: Antiviral activity against HIV-1 HE infected in wild-type human CEM/0 cells assessed as inhibition of virus-induced cytopathic effect incubated for 4 to 5 days by light microscopic analysis; type: functional, organism-based; details: Human immunodeficiency virus 1, HE, CCRF-CEM
[7] = Selectivity index, ratio of CC50 for human CEM cells to EC50 for HIV-2 ROD infected in thymidine kinase-deficient human CEM cells; type: toxicity; details: read-out: Ratio CC50/EC50
[8] = Cytotoxicity against human CEM cells assessed as reduction in cell viability incubated for 4 to 5 days by light microscopic analysis; type: toxicity, cell-based; details: CEM cells (CCRF-CEM), time 4-5 day
[9] = Prodrug conversion in pH 7.3 phosphate buffer assessed as metabolite formation by measuring half life in presence of pig liver esterase by HPLC analysis; type: ADME; details: isolated protein
[10] = system: Human immunodeficiency virus; test: Substrate activity at HIV reverse transcriptase measured after 4 hrs by electrophoresis based primer extension assay
[11] = biological target: T1, DNA polymerase subunit gamma-1 (Homo sapiens) (UniProt P54098); test: Substrate activity at human DNA polymerase gamma measured after 4 hrs by electrophoresis based primer extension assay
T1 sequence (whole entry): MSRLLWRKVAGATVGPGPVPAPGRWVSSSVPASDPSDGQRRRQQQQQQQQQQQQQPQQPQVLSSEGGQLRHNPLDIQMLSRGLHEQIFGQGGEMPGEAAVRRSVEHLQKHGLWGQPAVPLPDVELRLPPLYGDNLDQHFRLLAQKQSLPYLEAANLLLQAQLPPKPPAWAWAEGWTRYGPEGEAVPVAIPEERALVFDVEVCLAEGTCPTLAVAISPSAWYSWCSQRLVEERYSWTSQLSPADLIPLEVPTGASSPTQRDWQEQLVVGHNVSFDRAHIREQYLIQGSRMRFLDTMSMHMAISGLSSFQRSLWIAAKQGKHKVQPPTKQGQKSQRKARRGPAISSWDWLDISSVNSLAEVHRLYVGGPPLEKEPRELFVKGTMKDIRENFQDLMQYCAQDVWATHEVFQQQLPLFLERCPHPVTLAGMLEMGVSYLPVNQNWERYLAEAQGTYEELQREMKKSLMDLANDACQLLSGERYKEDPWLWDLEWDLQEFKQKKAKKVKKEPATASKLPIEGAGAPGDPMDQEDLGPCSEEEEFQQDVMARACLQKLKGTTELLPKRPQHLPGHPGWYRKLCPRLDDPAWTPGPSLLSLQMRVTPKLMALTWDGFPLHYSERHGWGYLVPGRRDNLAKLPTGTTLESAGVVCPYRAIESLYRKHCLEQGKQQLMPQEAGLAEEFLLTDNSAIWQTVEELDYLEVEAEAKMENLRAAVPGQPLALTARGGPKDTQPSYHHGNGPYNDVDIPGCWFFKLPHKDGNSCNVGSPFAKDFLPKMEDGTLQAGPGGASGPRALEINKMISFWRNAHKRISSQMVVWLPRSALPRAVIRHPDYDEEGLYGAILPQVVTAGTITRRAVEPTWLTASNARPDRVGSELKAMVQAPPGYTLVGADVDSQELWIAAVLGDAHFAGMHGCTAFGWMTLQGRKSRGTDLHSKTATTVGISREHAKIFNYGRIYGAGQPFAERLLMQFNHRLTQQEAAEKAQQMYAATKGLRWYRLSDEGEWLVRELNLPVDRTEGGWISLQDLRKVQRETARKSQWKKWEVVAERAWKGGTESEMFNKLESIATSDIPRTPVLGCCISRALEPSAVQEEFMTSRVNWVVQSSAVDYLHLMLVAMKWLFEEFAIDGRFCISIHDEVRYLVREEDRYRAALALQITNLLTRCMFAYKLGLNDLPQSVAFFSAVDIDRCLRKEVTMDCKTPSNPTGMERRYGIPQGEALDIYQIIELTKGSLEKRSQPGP

[12] = Prodrug conversion in pH 7.3 phosphate buffer assessed as ((2S,5R)-5-(5-methyl-2,4-dioxo-3,4-dihydropyrimidin-1(2H)-yl)-2,5-dihydrofuran-2-yl)methyl tri-hydrogen diphosphate formation by measuring half life in presence of pig liver esterase by HPLC analysis; type: ADME
[13] = biological target: DNA polymerase beta (Homo sapiens) (UniProt P06746); test: Substrate activity at human DNA polymerase beta measured after 4 hrs by electrophoresis based primer extension assay
[14] = Prodrug conversion in human CEM/0 cell extract assessed as ((2S,5R)-5-(5-methyl-2,4-dioxo-3,4-dihydropyrimidin-1(2H)-yl)-2,5-dihydrofuran-2-yl)methyl tri-hydrogen diphosphate formation by HPLC analysis; type: ADME; details: ccrf-cem
[15] = biological target: T2, DNA polymerase alpha catalytic subunit (Homo sapiens) (UniProt P09884); test: Substrate activity at human DNA polymerase alpha measured after 4 hrs by electrophoresis based primer extension assay
T2 sequence (whole entry): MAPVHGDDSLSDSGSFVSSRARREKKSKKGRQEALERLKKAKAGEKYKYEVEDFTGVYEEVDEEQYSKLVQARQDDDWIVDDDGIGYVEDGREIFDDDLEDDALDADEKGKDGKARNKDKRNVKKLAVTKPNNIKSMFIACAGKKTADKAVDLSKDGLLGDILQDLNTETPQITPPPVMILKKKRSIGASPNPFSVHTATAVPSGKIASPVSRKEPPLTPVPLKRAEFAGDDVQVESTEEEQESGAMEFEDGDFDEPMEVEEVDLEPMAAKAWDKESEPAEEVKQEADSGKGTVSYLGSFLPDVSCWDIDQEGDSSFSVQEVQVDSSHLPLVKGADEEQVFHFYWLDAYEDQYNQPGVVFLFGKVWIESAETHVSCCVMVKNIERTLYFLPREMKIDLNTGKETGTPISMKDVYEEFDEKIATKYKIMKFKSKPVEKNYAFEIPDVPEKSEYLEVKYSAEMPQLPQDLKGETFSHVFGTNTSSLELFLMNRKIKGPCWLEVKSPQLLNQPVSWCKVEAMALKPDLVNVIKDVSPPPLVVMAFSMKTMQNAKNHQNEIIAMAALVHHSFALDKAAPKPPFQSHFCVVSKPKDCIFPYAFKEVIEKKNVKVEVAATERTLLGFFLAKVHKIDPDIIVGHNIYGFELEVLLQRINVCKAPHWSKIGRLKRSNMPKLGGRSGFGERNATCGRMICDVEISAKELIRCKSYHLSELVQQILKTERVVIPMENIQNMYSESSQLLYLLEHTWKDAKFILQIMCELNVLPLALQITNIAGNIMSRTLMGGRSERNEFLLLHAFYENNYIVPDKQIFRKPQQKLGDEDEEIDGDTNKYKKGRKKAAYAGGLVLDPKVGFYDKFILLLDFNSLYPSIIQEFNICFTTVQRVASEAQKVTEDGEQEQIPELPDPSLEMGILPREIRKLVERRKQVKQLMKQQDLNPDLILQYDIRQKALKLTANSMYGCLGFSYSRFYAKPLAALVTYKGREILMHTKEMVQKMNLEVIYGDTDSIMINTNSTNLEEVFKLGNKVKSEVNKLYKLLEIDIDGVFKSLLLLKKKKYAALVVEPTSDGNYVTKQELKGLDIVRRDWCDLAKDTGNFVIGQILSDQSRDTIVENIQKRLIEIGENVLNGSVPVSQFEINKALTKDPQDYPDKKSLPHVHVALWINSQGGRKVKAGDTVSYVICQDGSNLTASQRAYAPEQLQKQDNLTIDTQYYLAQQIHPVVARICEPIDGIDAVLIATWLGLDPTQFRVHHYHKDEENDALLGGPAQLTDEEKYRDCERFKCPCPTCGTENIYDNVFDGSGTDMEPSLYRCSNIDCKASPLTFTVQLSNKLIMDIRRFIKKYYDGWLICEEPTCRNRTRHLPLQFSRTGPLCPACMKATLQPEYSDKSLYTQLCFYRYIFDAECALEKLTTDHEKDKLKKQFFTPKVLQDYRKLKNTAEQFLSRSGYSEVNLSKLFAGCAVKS

| Compound | t1/2 [1] [h] | Retention_time [2] [min] | EC50 [3] [nM] | half-life [4] [days] | EC50 [5] [nM] | EC50 [6] [nM] | selectivity ratio [7] | CC50 [8] [nM] | t1/2 [9] [h] | Activity [10] | Activity [11] | Drug metabolism [1] | t1/2 [12] [h] | Activity [13] | Drug metabolism [14] | Activity [15] |
| --- | --- | --- | --- | --- | --- | --- | --- | --- | --- | --- | --- | --- | --- | --- | --- | --- |
| CCCCOP(=O)(OCc1ccc(OC(=O)CCCC)cc1)OP(=O)(O)OC[C@@H]1C=C[C@H](n2cc(C)c(=O)[nH]c2=O)O1.N (stereo partly drawn) | 0.36 | 12.5 | 170 | 5.46 | 19200 | 440 | > 5 | > 100000 | < 0.01 | – | – | – | – | – | – | – |
| Cc1cn([C@H]2C=C[C@@H](COP(=O)(O)OP(=O)(O)O)O2)c(=O)[nH]c1=O | – | – | – | – | – | – | – | – | – | Active | – | – | – | – | – | – |
| Cc1cn([C@H]2C=C[C@@H](CO)O2)c(=O)[nH]c1=O [STAVUDINE] | – | – | – | – | > 50000 | – | > 1 | > 50000 | – | – | – | – | – | – | – | – |
| CCCCCCCCCCCCP(=O)(OCc1ccc(OC(=O)CCCCCCCCCCC)cc1)OP(=O)(O)OC[C@@H]1C=C[C@H](n2cc(C)c(=O)[nH]c2=O)O1.N (stereo partly drawn) | 3 | 20.6 | 60 | > 83.3 | 10 | 130 | 4110 | 41100 | 0.27 | – | – | – | – | – | – | – |
| COP(=O)(O)OP(=O)(O)OC[C@@H]1C=C[C@H](n2cc(C)c(=O)[nH]c2=O)O1.N.N | – | 8.9 | 180 | > 125 | 40400 | 520 | > 2 | > 100000 | – | – | inactive | Metabolite_Notdetected | > 150 | inactive | Metabolite_Notdetected | inactive |
| CCCCOP(=O)(O)OP(=O)(O)OC[C@@H]1C=C[C@H](n2cc(C)c(=O)[nH]c2=O)O1.N.N | > 30 | 9.4 | 420 | > 125 | 43200 | 720 | > 2 | > 100000 | – | – | inactive | – | > 150 | inactive | Metabolite_Notdetected | inactive |
| CCCCCCCCCCCCCCCCCCOP(=O)(OCc1ccc(OC(=O)CCCC)cc1)OP(=O)(O)OC[C@@H]1C=C[C@H](n2cc(C)c(=O)[nH]c2=O)O1.N (stereo partly drawn) | > 7 | 20.3 | 36 | 16.9 | 16 | 59 | 3170 | 50600 | 0.18 | – | – | – | – | – | – | – |
| CCCCCCCCCCCCOP(=O)(OCc1ccc(OC(=O)CCCCCCCCCCC)cc1)OP(=O)(O)OC[C@@H]1C=C[C@H](n2cc(C)c(=O)[nH]c2=O)O1.N (stereo partly drawn) | 4.5 | 20.9 | 120 | 15.5 | 48 | 120 | 1010 | 48400 | 0.67 | – | – | – | – | – | – | – |
| CCCCCCCCCCCCCCCCCCOP(=O)(O)OP(=O)(O)OC[C@@H]1C=C[C@H](n2cc(C)c(=O)[nH]c2=O)O1.N.N | > 13 | 15.1 | 68 | > 125 | 1 | 330 | > 62500 | > 100000 | – | inactive | inactive | – | > 150 | inactive | Metabolite_Notdetected | inactive |
| CCCCCCCCCCCCOP(=O)(O)OP(=O)(O)OC[C@@H]1C=C[C@H](n2cc(C)c(=O)[nH]c2=O)O1.N.N | > 30 | 12.6 | 190 | > 125 | 11000 | 560 | > 9 | > 100000 | – | – | inactive | – | > 150 | inactive | Metabolite_Notdetected | inactive |
| CCCCCCCCCCCCP(=O)(O)OP(=O)(O)OC[C@@H]1C=C[C@H](n2cc(C)c(=O)[nH]c2=O)O1.N.N | > 30 | 12.3 | 200 | > 83.3 | 12600 | 870 | > 8 | > 100000 | – | – | – | – | > 150 | – | Metabolite_Notdetected | – |
